Legend:
Bacillus cereus = assay: Agar plate disc-diffusion, antibacterial inhibition zone; type: cell-based; conditions: nutrient agar, 37° C., 48 h, DMSO zone subtracted
Protocol: (§1) The agar plate disc-diffusion method was applied. […] The discs were then placed onto the surface of agar plates (nutrient agar for bacteria and Sabouraud's dextrose agar for fungi) seeded with the test organism. Each plate contained 15 mLof the agar medium, previously seeded with 0.2 mL of the broth culture of each organism pregrown for 18 h. The plates were incubated at 37° C. for 48 h, and 72 h for fungi. The inhibition zones was measured in mm. Discs impregnated with DMSO were used as a control, and its inhibition zone was subtracted from the tested compound actual inhibition zone.

Pseudomonas aeruginosa = assay: as above; type: cell-based; conditions: nutrient agar, 37° C., 48 h, DMSO zone subtracted
Protocol: as §1

Staphylococcus aureus = assay: as above; type: cell-based; conditions: nutrient agar, 37° C., 48 h, DMSO zone subtracted
Protocol: as §1

Escherichia coli = assay: as above; type: cell-based; conditions: nutrient agar, 37° C., 48 h, DMSO zone subtracted
Protocol: as §1

[1] = test system: Chrysosporium keratinophilum; assay: Agar plate disc-diffusion, antifungal inhibition zone; type: cell-based; conditions: Sabouraud's dextrose agar, 37° C., 72 h, DMSO zone subtracted
Protocol: as §1

Aspergillus flavus = assay: as above; type: cell-based; conditions: Sabouraud's dextrose agar, 37° C., 72 h, DMSO zone subtracted
Protocol: as §1

[2] = A = concentration of comp. = 10,000 μL
[3] = B = concentration of comp. = 30,000 μL
[4] = C = concentration of comp. = 50,000 μL

melting point: 164 °C
SMILES: O=C(O)CCCCCSc1nnc(-c2cccc(F)c2)n1-c1ccccc1 [III, 6-(5-(3-fluorophenyl)-4-phenyl-4H-1,2,4-triazol-3-ylthio)hexanoic acid]
inhibition zone, Bacillus Cereus (Bacillus cereus; [2]): 26 mm
inhibition zone, Bacillus Cereus (Bacillus cereus; [3]): 30 mm
inhibition zone, Bacillus Cereus (Bacillus cereus; [4]): 41 mm
inhibition zone, Pseudomonas aeruginosa (Pseudomonas aeruginosa; [2]): 24 mm
inhibition zone, Pseudomonas aeruginosa (Pseudomonas aeruginosa; [3]): 26 mm
inhibition zone, Pseudomonas aeruginosa (Pseudomonas aeruginosa; [4]): 45 mm
inhibition zone, Staphylococcus aureus (Staphylococcus aureus; [2]): 22 mm
inhibition zone, Staphylococcus aureus (Staphylococcus aureus; [3]): 25 mm
inhibition zone, Staphylococcus aureus (Staphylococcus aureus; [4]): 30 mm
inhibition zone, Escherichia coli (Escherichia coli; [2]): 27 mm
inhibition zone, Escherichia coli (Escherichia coli; [3]): 34 mm
inhibition zone, Escherichia coli (Escherichia coli; [4]): 56 mm
inhibition zone, Chrysosporium keratinophilum [1, 2]: 25 mm
inhibition zone, Chrysosporium keratinophilum [1, 3]: 28 mm
inhibition zone, Chrysosporium keratinophilum [1, 4]: 46 mm
inhibition zone, Aspergillus flavus (Aspergillus flavus; [2]): 21 mm
inhibition zone, Aspergillus flavus (Aspergillus flavus; [3]): 27 mm
inhibition zone, Aspergillus flavus (Aspergillus flavus; [4]): 37 mm

Reference: patent US11932612B1, “6-(5-(3-fluorophenyl)-4-phenyl-4H-1,2,4-triazol-3-ylthio)hexanoic acid as an antimicrobial compound” (KING FAISAL UNIVERSITY, priority 2023, dated 2024)
